Results on 80 compounds are retold here after the METLIN SMRT retention time set (Domingo-Almenara et al. 2019).

The nature of this series: gradient 5% acetonitrile 3 min, to 50% in 2 min, to 85% in 15 min, held 3 min, 100 µL/min. The following applies: column: Zorbax Extend-C18 2.1 x 50 mm; eluents: water / acetonitrile, 0.1% formic acid. A digest of the protocol:
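Using water and acetonitrile that each contained 0.1% formic acid, mixtures of ~100 pure standards were separated at 100 μL/min on a Zorbax Extend-C18 column (2.1 × 50 mm, 1.8 μm). The HPLC fed a quadrupole time-of-flight mass spectrometer working in positive and negative ionization mode, with dead and dwell volumes of 40 μL and 900 μL. Data were acquired over 3 months. Retention time was read from computationally picked adduct peaks after manual inspection of each.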
Compound `CCCCNC(=O)C(=O)NCc1n[nH]c(=O)c2ccccc12` came in with an RP-LC retention time of 659 s.
The compound `CCSc1nnc(-c2nn(C)c3c2CN(C(=O)c2c(F)cccc2F)CC3)n1C` registered an RP-LC retention time of 746 s.
As to `CCOc1ccccc1NC(=O)CSc1nnc(Cc2ccccc2)n1-n1cccc1`, the RP-LC retention time was determined as 948 s.
The same measure for `N[C@@H]1CCCCN(c2c(F)cc3c(=O)c(C(=O)O)cn(C4CC4)c3c2Cl)C1`: 707 s; for `COc1ccc(OCC(=O)Nc2nc(-c3ccc(Cl)cc3)cs2)cc1`: 1140 s; for `O=C(C1CCN(c2nc(-c3ccc(Cl)cc3)no2)CC1)N1CCC(N2CCCCC2)CC1`: 701 s.
Then `Cn1ncn2cc(S(=O)(=O)NCc3ccc(Cl)cc3)cc2c1=O`, with 817 s; and `O=C(COc1ccc2c3c(c(=O)oc2c1)CCC3)N[C@H](Cc1c[nH]c2ccccc12)C(=O)O`, with 793 s.
With `COc1ccccc1NC(=O)N1CCCC1c1c(C)noc1C` (stereo not given), the RP-LC retention time amounted to 797 s.
Then `O=C(Nc1cnc(N2CCCCCC2)nc1)c1ccc(F)cc1F`, with 954 s; and `CC(=O)N1CCc2sc(C(=O)NC(C)c3ccccc3)cc2C1` (stereo not given), with 708 s.
`Cc1c(Cl)cccc1NC(=O)C1CCCN(c2nc3ccccc3nc2C(F)(F)F)C1` (stereo not given) gave an RP-LC retention time of 1230 s.
Then `Cc1ccccc1Nc1c(-c2ccc(N(C)C)cc2)nc2ncccn12`, with 725 s.
Then `O=C(Nc1cccc(C(=O)N2CCN(c3ccc(Cl)cc3)CC2)c1)C1=CSCCO1`, with 955 s.
Then `CCOC(=O)c1c(C)c(CCC(=O)N2CCN(C(=O)c3ccco3)CC2)n(CC)c1C`, with 778 s; and `O=C(Cc1cccs1)NCC(=O)Nc1nc2ccccc2[nH]1`, with 609 s; and `Cc1nc(-c2cn(C(C)C)c3ncccc23)sc1C(=O)NCc1ccc2c(c1)OCO2`, with 980 s.
The compound `CCOc1ccc(NC(=O)Cn2cnc3nc(N4CCC(C(=O)NC5CC5)CC4)sc3c2=O)cc1` registered an RP-LC retention time of 675 s.
The same measure for `O=C(Nc1ccc(-c2nc3ccccc3s2)cc1)c1cc(=O)c2ccccc2o1`: 1030 s; for `CC(C)OC(=O)Cn1nc2c(-c3nc(-c4ccc(Cl)cc4)no3)cccn2c1=O`: 1040 s.
The same measure for `CNC(=O)c1nc(C(C)(C)NC(=O)c2ccnn2C)nc2c1OCO2`: 603 s; for `CCCCC(=O)Nc1ccc(N2CCOCC2)cc1C(=O)O`: 578 s; for `CCCN(C)CC1(O)CCC2(CCN(C(=O)c3ccoc3)CC2)CC1`: 575 s.
Then `O=C(CN1CCC2(CC1)N=C(c1ccc(F)cc1)C(=O)N2)Nc1ccc(F)cc1F`, with 666 s.
`O=C(Nc1ccccc1)N1CCN(c2nc3ccccc3nc2C(F)(F)F)CC1` had an RP-LC retention time of 1070 s.
Then `CN(C)c1nc2ncn3c(=O)n(CC(=O)Nc4cccc(F)c4)nc3c2s1`, with 686 s.
The same measure for `O=C(O)CN1CCCc2nc(-c3ccccc3)ncc2C1=O`: 716 s.
Then `CCN(CC)C(=O)Cn1nc2c(SCc3ccc(Cl)cc3)nccn2c1=O`, with 930 s; and `COc1ccccc1C(=O)NCCn1cc(SCC(N)=O)c2ccccc21`, with 680 s.
The compound `COc1cccc(-n2cc(C(=O)OCc3ccccn3)c3ccccc3c2=O)c1` gave an RP-LC retention time of 854 s.
Compound `CNC(=O)C1CN(C(=O)Nc2cc(C)ccc2C)CC12CCCC2` (stereo not given) displayed an RP-LC retention time of 715 s.
`O=C(Cn1cccc1-c1nc(-c2ccc3c(c2)OCO3)no1)Nc1ccccc1` displayed an RP-LC retention time of 1140 s.
Then `CCc1cccc(C)c1NC(=O)Cn1c(=O)n(-c2ccc(C)cc2)c(=O)c2c1cc(C)n2C`, with 909 s; and `COc1nccnc1N1CCC(NC(=O)Cc2c(C)noc2C)C1` (stereo not given), with 596 s; and `CCOc1ccc(NC(=O)Cn2c(CC)nc3cc4c(cc32)OCCO4)cc1`, with 670 s.
`O=C(NCc1ccncc1)C1CN(S(=O)(=O)c2ccccc2)CC12CCCCC2` (stereo not given) came in with an RP-LC retention time of 594 s.
Then `CCC(NC(=O)C1CCCN(c2cnc3nccnc3c2)C1)c1cccs1` (stereo not given), with 728 s.
The same measure for `Cc1ccc(C)c(CNC(=O)CCNc2cnc3cnccn23)c1`: 605 s; for `COc1ccccc1Cc1noc(C2CN(C(=O)c3ccccc3C(F)(F)F)C2)n1`: 873 s.
Then `Cc1ccc(S(=O)(=O)N(C)c2ccc(OCC(=O)N3CCOCC3)cc2)cc1`, with 732 s.
The compound `CC(C)n1c(=O)c(NCc2ccc(F)cc2Cl)nc2ccncc21` came in with an RP-LC retention time of 686 s.
Then `Cc1ccc(NC(=O)N2CCc3[nH]cnc3C2c2ccncc2)c(Cl)c1` (stereo not given), with 753 s; and `Cc1nc2cc(N3CC(C(=O)NCc4cccc(Cl)c4)CC3=O)ccc2o1` (stereo not given), with 734 s.
Compound `CC(=O)N1CCN(S(=O)(=O)c2ccc(C(=O)O)cc2)CC1` registered an RP-LC retention time of 591 s.
The same measure for `COc1cc(Br)ccc1NC(=O)C1CCCN(c2nc3ccccc3nc2OC)C1` (stereo not given): 1330 s.
The same measure for `CCC(=O)N1CCc2c(C(=O)N3CCN(c4cc(C)ccc4C)CC3)cccc21`: 1040 s; for `CCn1ccc(C(=O)N2c3ccccc3CC2c2nc(C3CC3)no2)n1` (stereo not given): 924 s; for `COc1ccc(-c2csc(C)n2)cc1S(=O)(=O)N(C)c1ccc(C)cc1`: 1040 s.
The same measure for `CCc1nc(-c2csc(S(=O)(=O)N3CCC(C(=O)NCc4ccc(C)cc4)CC3)c2)no1`: 662 s.
For the compound `Cc1ccccc1Nc1c(-c2ccc(Cl)cc2)nc2ccc(Br)cn12`, the RP-LC retention time is 1090 s.
The compound `COC(=O)c1cn(CC(=O)NCc2ccc3c(c2)OCCCO3)c2ccccc12` yielded an RP-LC retention time of 852 s.
The compound `Cc1noc(-c2cc(=O)n(CC(=O)Nc3c(C)cccc3C)c3ccccc23)n1` registered an RP-LC retention time of 839 s.
Take `Cc1cnc(C(=O)N[C@@H]2CCC[C@@H]2C(=O)N2CCSCC2)cn1`: the RP-LC retention time was found to be 633 s.
Then `CNC(=O)N1Cc2ccccc2OC2(CCN(C(C)C)CC2)C1`, with 592 s; and `O=C(NCCc1csc(-c2cccs2)n1)C1CCN(C(=O)c2cccc(F)c2)CC1`, with 768 s; and `Clc1ccc(-c2nc(N3CCC(N4CCCCC4)CC3)c3ccccc3n2)cc1`, with 616 s.
The same measure for `CC(C)COc1cc(=O)n2c(c1C(=O)N1CCOCC1)CCCCC2`: 656 s.
The same measure for `Cc1c(F)cccc1NC(=O)C1CCc2nc(N3CCOCC3)ncc2C1` (stereo not given): 808 s; for `COCCN1CCC2(CC1)CN(Cc1cc(C)ccc1C)Cc1ccccc1O2`: 718 s; for `Cn1cnc2ccc(-c3noc(CNC(=O)c4cccs4)n3)cc21`: 585 s.
`Cc1nnc2ccc(-c3noc(-c4ccc(F)cc4)n3)cn12` gave an RP-LC retention time of 865 s.
Then `CCc1noc(NC(C)=O)c1-c1ccc(OC)c(S(=O)(=O)N2CCCCCC2)c1`, with 817 s; and `Cc1ccc(-c2nc(C)cc(SCC(=O)Nc3ccccc3Br)n2)cc1`, with 1290 s; and `Cc1ccc(-c2ccc(N3CCCC(C(=O)NCCCOC(C)C)C3)nn2)cc1C` (stereo not given), with 708 s.
The same measure for `COC(=O)c1nnn(-c2ccc(Cl)cc2)c1C(=O)OC`: 908 s; for `Cc1ccc(S(=O)(=O)NCCCC(=O)NCc2ccccc2)cc1`: 732 s; for `O=C(NCc1ccccn1)C(=O)c1cn(CC(=O)N2CCOCC2)c2ccccc12`: 614 s.
With `O=C(Nc1nc(-c2cccs2)cs1)c1cccc([N+](=O)[O-])c1`, the RP-LC retention time was found to be 936 s.
The same measure for `COC(=O)C(C)N1CN(c2ccc(C)cc2)c2ncccc2S1(=O)=O` (stereo not given): 918 s.
The same measure for `Cc1nc(-c2cc3ccccc3nc2N2CCN(Cc3ccccc3)CC2)no1`: 715 s; for `COc1nn(C)cc1C(=O)Nc1cc(C)ns1`: 598 s.
Then `Cc1ccccc1-n1ccn(Cc2nc(-c3ccc(Cl)cc3)no2)c(=O)c1=O`, with 912 s; and `CCCN1CCN(c2ccc(NC(=O)C3CCC3)c(C(=O)O)c2)CC1`, with 561 s; and `CN(C)CCCN(C(=O)c1ccc(Br)s1)c1nc2c(F)cccc2s1`, with 617 s.
`CC(C)NC(=O)C1CC(=O)N(c2n[nH]c3cccc(F)c23)C1` (stereo not given) gave an RP-LC retention time of 621 s.
The same measure for `CCCCOc1ccc(C(=O)Nc2cccc3c2C(=O)NC3=O)cc1`: 1020 s.
The same measure for `COc1ccc(Cl)cc1NC(=O)C1c2cc(OC)c(OC)cc2C(=O)N(C)C1c1cccnc1` (stereo not given): 703 s.
As for `CC1CCN(C(=O)c2cc(S(=O)(=O)N3CCC(C(=O)NC4CC4)CC3)cn2C)CC1`, the RP-LC retention time was determined as 681 s.
Then `CCn1ccc2sc(C)c(C(=O)N3CCCCC3)c2c1=O`, with 684 s; and `O=C(CCNc1c(-c2ccc(F)cc2)nc2cnccn12)Nc1ccc2c(c1)OCO2`, with 727 s.
